Test results from PubChem BioAssay (NCI).
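Compound exposure: 48 hours, 5 concentrations, 96-well plates. Abbreviation: GI50, concentration required for 50% inhibition of growth. TGI: concentration producing complete growth inhibition.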

How the values were obtained:
Experiment in all cases: growth of human tumour cells (NCI), 48 h
MDA-MB-435 = system: MDA-MB-435
SF-268 CNS = system: SF-268 CNS
A498 renal = system: A498 renal
A549 NSCLC = system: A549 NSCLC
K-562 leukemia = system: K-562 leukemia
MCF7 breast = system: MCF7 breast
OVCAR-4 ovarian = system: OVCAR-4 ovarian
786-0 renal = system: 786-0 renal
EKVX NSCLC = system: EKVX NSCLC
SK-MEL-5 melanoma = system: SK-MEL-5 melanoma
HOP-92 NSCLC = system: HOP-92 NSCLC
HL-60(TB) leukemia = system: HL-60(TB) leukemia
RPMI-8226 leukemia = system: RPMI-8226 leukemia
MDA-MB-231 breast = system: MDA-MB-231 breast
SR leukemia = system: SR leukemia
OVCAR-5 ovarian = system: OVCAR-5 ovarian
T-47D breast = system: T-47D breast
HOP-62 NSCLC = system: HOP-62 NSCLC
HCT-15 colon = system: HCT-15 colon
SNB-19 CNS = system: SNB-19 CNS
OVCAR-3 ovarian = system: OVCAR-3 ovarian
NCI/ADR-RES ovarian = system: NCI/ADR-RES ovarian
UO-31 renal = system: UO-31 renal
UACC-62 melanoma = system: UACC-62 melanoma
BT-549 breast = system: BT-549 breast
PC-3 prostate = system: PC-3 prostate
OVCAR-8 ovarian = system: OVCAR-8 ovarian
KM12 colon = system: KM12 colon
TK-10 renal = system: TK-10 renal
HCC-2998 colon = system: HCC-2998 colon
NCI-H522 lung = system: NCI-H522 lung
SK-MEL-28 melanoma = system: SK-MEL-28 melanoma
MOLT-4 leukemia = system: MOLT-4 leukemia
SF-539 CNS = system: SF-539 CNS
SF-295 CNS = system: SF-295 CNS
CCRF-CEM leukemia = system: CCRF-CEM leukemia
NCI-H226 lung = system: NCI-H226 lung
SNB-75 CNS = system: SNB-75 CNS
M14 melanoma = system: M14 melanoma
SK-OV-3 ovarian = system: SK-OV-3 ovarian
ACHN renal = system: ACHN renal
IGROV1 ovarian = system: IGROV1 ovarian
U251 CNS = system: U251 CNS
NCI-H460 lung = system: NCI-H460 lung
CAKI-1 renal = system: CAKI-1 renal
COLO 205 colon = system: COLO 205 colon
HCT-116 colon = system: HCT-116 colon
SK-MEL-2 melanoma = system: SK-MEL-2 melanoma
LOX IMVI melanoma = system: LOX IMVI melanoma
HT29 colon = system: HT29 colon
RXF 393 renal = system: RXF 393 renal
MALME-3M melanoma = system: MALME-3M melanoma
SN12C renal = system: SN12C renal
NCI-H23 lung = system: NCI-H23 lung
HS 578T breast = system: HS 578T breast
UACC-257 melanoma = system: UACC-257 melanoma
SW-620 colon = system: SW-620 colon
DU-145 prostate = system: DU-145 prostate

How did the GI50 (MDA-MB-435) turn out when `CC(C)CCC[C@@H](C)[C@H]1CC[C@H]2[C@@H]3CC=C4C[C@@H](C(C(=O)O)C(=O)O)CC[C@]4(C)[C@H]3CC[C@]12C` was run?
The GI50 was 72.1 nM.

What about the TGI (MDA-MB-435) of the same compound?
Its TGI is 188 nM.

What about the GI50 (SF-268 CNS) of the same compound?
Its GI50 is 157 nM.

And the TGI (SF-268 CNS)?
Its TGI is 1650 nM.

And the GI50 (A498 renal)?
The GI50 was 86.2 nM.

What about the TGI (A498 renal) of the same compound?
The TGI was 216 nM.

And the GI50 (A549 NSCLC)?
Its GI50 is 145 nM.

What about the TGI (A549 NSCLC) of the same compound?
Its TGI is 547 nM.

And the GI50 (K-562 leukemia)?
The GI50 was 144 nM.

And the TGI (K-562 leukemia)?
The TGI was 2000 nM.

What about the GI50 (MCF7 breast) of the same compound?
The GI50 was 386 nM.

And the TGI (MCF7 breast)?
Its TGI is 5.37 µM.

What about the GI50 (OVCAR-4 ovarian) of the same compound?
The GI50 was 207 nM.

And the TGI (OVCAR-4 ovarian)?
Its TGI is 4.35 µM.

What about the GI50 (786-0 renal) of the same compound?
The GI50 was 288 nM.

And the TGI (786-0 renal)?
Its TGI is 2510 nM.

What about the GI50 (EKVX NSCLC) of the same compound?
Its GI50 is 78.6 nM.

What about the TGI (EKVX NSCLC) of the same compound?
Its TGI is 245 nM.

What about the GI50 (SK-MEL-5 melanoma) of the same compound?
The GI50 was 113 nM.

And the TGI (SK-MEL-5 melanoma)?
The TGI was 266 nM.

And the GI50 (HOP-92 NSCLC)?
Its GI50 is 307 nM.

What about the TGI (HOP-92 NSCLC) of the same compound?
The TGI was 904 nM.

What about the GI50 (HL-60(TB) leukemia) of the same compound?
The GI50 was 252 nM.

And the TGI (HL-60(TB) leukemia)?
The TGI was 1480 nM.

And the GI50 (RPMI-8226 leukemia)?
The GI50 was 353 nM.

What about the TGI (RPMI-8226 leukemia) of the same compound?
The TGI was 938 nM.

What about the GI50 (MDA-MB-231 breast) of the same compound?
The GI50 was 214 nM.

What about the TGI (MDA-MB-231 breast) of the same compound?
The TGI was 838 nM.

And the GI50 (SR leukemia)?
Its GI50 is 135 nM.

And the TGI (SR leukemia)?
The TGI was 1630 nM.

And the GI50 (OVCAR-5 ovarian)?
The GI50 was 198 nM.

What about the TGI (OVCAR-5 ovarian) of the same compound?
The TGI was 5.56 µM.

What about the GI50 (T-47D breast) of the same compound?
The GI50 was 188 nM.

What about the TGI (T-47D breast) of the same compound?
Its TGI is 2800 nM.

What about the GI50 (HOP-62 NSCLC) of the same compound?
Its GI50 is 176 nM.

What about the TGI (HOP-62 NSCLC) of the same compound?
Its TGI is 747 nM.

And the GI50 (HCT-15 colon)?
Its GI50 is 148 nM.

What about the TGI (HCT-15 colon) of the same compound?
The TGI was 612 nM.

What about the GI50 (SNB-19 CNS) of the same compound?
The GI50 was 237 nM.

What about the TGI (SNB-19 CNS) of the same compound?
The TGI was 8.91 µM.

What about the GI50 (OVCAR-3 ovarian) of the same compound?
Its GI50 is 121 nM.

What about the TGI (OVCAR-3 ovarian) of the same compound?
Its TGI is 298 nM.

And the GI50 (NCI/ADR-RES ovarian)?
The GI50 was 220 nM.

What about the TGI (NCI/ADR-RES ovarian) of the same compound?
The TGI was 6 µM.

And the GI50 (UO-31 renal)?
Its GI50 is 137 nM.

And the TGI (UO-31 renal)?
Its TGI is 467 nM.

And the GI50 (UACC-62 melanoma)?
Its GI50 is 76.4 nM.

And the TGI (UACC-62 melanoma)?
The TGI was 187 nM.

And the GI50 (BT-549 breast)?
The GI50 was 197 nM.

And the TGI (BT-549 breast)?
The TGI was 2210 nM.

And the GI50 (PC-3 prostate)?
The GI50 was 177 nM.

What about the TGI (PC-3 prostate) of the same compound?
Its TGI is 2190 nM.

And the GI50 (OVCAR-8 ovarian)?
The GI50 was 158 nM.

And the TGI (OVCAR-8 ovarian)?
Its TGI is 807 nM.

What about the GI50 (KM12 colon) of the same compound?
Its GI50 is 117 nM.

And the TGI (KM12 colon)?
Its TGI is 292 nM.

What about the GI50 (TK-10 renal) of the same compound?
Its GI50 is 165 nM.

What about the TGI (TK-10 renal) of the same compound?
Its TGI is 632 nM.

And the GI50 (HCC-2998 colon)?
The GI50 was 185 nM.

And the TGI (HCC-2998 colon)?
Its TGI is 1280 nM.

And the GI50 (NCI-H522 lung)?
The GI50 was 153 nM.

And the TGI (NCI-H522 lung)?
Its TGI is 527 nM.

What about the GI50 (SK-MEL-28 melanoma) of the same compound?
Its GI50 is 143 nM.

What about the TGI (SK-MEL-28 melanoma) of the same compound?
Its TGI is 469 nM.

And the GI50 (MOLT-4 leukemia)?
The GI50 was 248 nM.

And the TGI (MOLT-4 leukemia)?
Its TGI is 2050 nM.

What about the GI50 (SF-539 CNS) of the same compound?
The GI50 was 107 nM.

What about the TGI (SF-539 CNS) of the same compound?
Its TGI is 407 nM.

What about the GI50 (SF-295 CNS) of the same compound?
The GI50 was 64.3 nM.

And the TGI (SF-295 CNS)?
Its TGI is 153 nM.

And the GI50 (CCRF-CEM leukemia)?
The GI50 was 112 nM.

And the TGI (CCRF-CEM leukemia)?
Its TGI is 913 nM.

And the GI50 (NCI-H226 lung)?
Its GI50 is 209 nM.

What about the TGI (NCI-H226 lung) of the same compound?
Its TGI is 622 nM.

And the GI50 (SNB-75 CNS)?
Its GI50 is 166 nM.

And the TGI (SNB-75 CNS)?
Its TGI is 1470 nM.

And the GI50 (M14 melanoma)?
Its GI50 is 186 nM.

What about the TGI (M14 melanoma) of the same compound?
Its TGI is 1760 nM.

And the GI50 (SK-OV-3 ovarian)?
Its GI50 is 298 nM.

And the TGI (SK-OV-3 ovarian)?
Its TGI is 3.15 µM.

What about the GI50 (ACHN renal) of the same compound?
The GI50 was 150 nM.

And the TGI (ACHN renal)?
Its TGI is 662 nM.

What about the GI50 (IGROV1 ovarian) of the same compound?
The GI50 was 166 nM.

What about the TGI (IGROV1 ovarian) of the same compound?
The TGI was 1120 nM.

And the GI50 (U251 CNS)?
The GI50 was 129 nM.

What about the TGI (U251 CNS) of the same compound?
The TGI was 408 nM.

What about the GI50 (NCI-H460 lung) of the same compound?
The GI50 was 160 nM.

What about the TGI (NCI-H460 lung) of the same compound?
The TGI was 497 nM.

What about the GI50 (CAKI-1 renal) of the same compound?
The GI50 was 76 nM.

What about the TGI (CAKI-1 renal) of the same compound?
Its TGI is 199 nM.

And the GI50 (COLO 205 colon)?
The GI50 was 111 nM.

What about the TGI (COLO 205 colon) of the same compound?
The TGI was 247 nM.

What about the GI50 (HCT-116 colon) of the same compound?
The GI50 was 101 nM.

And the TGI (HCT-116 colon)?
The TGI was 798 nM.

What about the GI50 (SK-MEL-2 melanoma) of the same compound?
The GI50 was 224 nM.

What about the TGI (SK-MEL-2 melanoma) of the same compound?
Its TGI is 613 nM.

And the GI50 (LOX IMVI melanoma)?
Its GI50 is 139 nM.

And the TGI (LOX IMVI melanoma)?
Its TGI is 468 nM.

What about the GI50 (HT29 colon) of the same compound?
The GI50 was 224 nM.

What about the TGI (HT29 colon) of the same compound?
The TGI was 1060 nM.

And the GI50 (RXF 393 renal)?
The GI50 was 192 nM.

And the TGI (RXF 393 renal)?
The TGI was 662 nM.

What about the GI50 (MALME-3M melanoma) of the same compound?
Its GI50 is 134 nM.

What about the TGI (MALME-3M melanoma) of the same compound?
Its TGI is 502 nM.

What about the GI50 (SN12C renal) of the same compound?
The GI50 was 137 nM.

What about the TGI (SN12C renal) of the same compound?
The TGI was 457 nM.

What about the GI50 (NCI-H23 lung) of the same compound?
The GI50 was 147 nM.

And the TGI (NCI-H23 lung)?
Its TGI is 630 nM.

What about the GI50 (HS 578T breast) of the same compound?
Its GI50 is 242 nM.

What about the TGI (HS 578T breast) of the same compound?
The TGI was 2580 nM.

What about the GI50 (UACC-257 melanoma) of the same compound?
Its GI50 is 133 nM.

What about the TGI (UACC-257 melanoma) of the same compound?
The TGI was 639 nM.

And the GI50 (SW-620 colon)?
Its GI50 is 156 nM.

What about the TGI (SW-620 colon) of the same compound?
The TGI was 1250 nM.

And the GI50 (DU-145 prostate)?
Its GI50 is 115 nM.

What about the TGI (DU-145 prostate) of the same compound?
Its TGI is 274 nM.
